We go through 1 compound from patent publication US20250281620A1, “HYDROXYBISPHOSPHONIC DERIVATIVES OF MELOXICAM FOR THE TREATMENT OF INFLAMMATORY JOINT DISEASES” (Atlanthéra, priority 2021, published 2025).

The nature of one data set: Solubility in water. Particulars: general statement, no method described. The class given is physicochemical.
The subject of another data set is monoarthritis in rats. As to the kind of experiment: mBSA-induced monoarthritis model in rats (knee swelling, limping). The class given is in vivo, rat. Particulars: oral daily meloxicam 0.2 mg/kg. On the procedure: Monoarthritis was induced in rats (male, Sprague Dawley strain, aged 14 weeks) by intra-articular injection (knee) of 100 μg of mBSA after two preliminary sensitizers (2 and 3 weeks before the induction) by subcutaneous injection of a CFA emulsion containing 500 μg of mBSA. The distribution was carried out on D2, 24 h after induction, as a function of the intensity of the swelling in order to obtain homogeneity between the groups. […] The HBP-meloxicam molecules were solubilized in 5% glucose. In control, the pathological animals (mBSA) received a single injection (caudal vein, 5 min infusion, volume of 10 mL/kg) of 5% glucose.
In reference treatment, the animals received an oral daily administration of meloxicam for 28 days at the NOEL dose of 0.2 mg/kg-0.57 μmol/kg, i.e., a cumulative dose of 15.96 μmol/kg.
The evolution of arthritis was monitored by measuring the swelling of the pathological knee as well as the animal's limping.

Structures are written as SMILES.

On to `Cc1cnc(NC(=O)C2=C(O)c3ccccc3S(=O)(=O)N2C)s1` [meloxicam], for which the solubility in water entry in “Solubility in water” was “very poorly soluble”. Also, in the data set on monoarthritis in rats, the “end of limping after treatment” value turned out to be 9 days.
